Laboratory results from patent publication US20110263629A1, “AMIDES OF DIAZABICYCLOOCTANES AND USES THEREOF” (Targacept, Inc., priority 2008, published 2011).
Where two headings read alike, the source gives them in different places.

Legend:
rat α4β2 nAChR subtype = biological target: T1, rat α4β2 nAChR subtype (Rattus norvegicus, UniProt P09483+P12390); test: Radioligand binding ([3H]nicotine) at rat α4β2 nAChR, rat cortex membranes; conditions: read-out: Rat α4β2 Ki
T1 construct: Preparation of membranes from rat cortex; from tissue; host or cells: rat cerebral cortex membranes
Procedure: (§1) Preparation of membranes from rat cortex: Rats (female, Sprague-Dawley), weighing 150-250 g, were maintained on a 12 h light/dark cycle and were allowed free access to water and food supplied by PMI Nutrition International, Inc. Animals were anesthetized with 70% CO2, and then decapitated. Brains were removed and placed on an ice-cold platform. The cerebral cortex was removed and placed in 20 volumes (weight:volume) of ice-cold preparative buffer (137 mM NaCl, 10.7 mM KCl, 5.8 mM KH2PO4, 8 mM Na2HPO4, 20 mM HEPES (free acid), 5 mM iodoacetamide, 1.6 mM EDTA, pH 7.4); PMSF, dissolved in methanol to a final concentration of 100 μM, was added and the suspension was homogenized by Polytron. The homogenate was centrifuged at 18,000×g for 20 min at 4° C. and the resulting pellet was re-suspended in 20 volumes of ice-cold water. After 60 min incubation on ice, a new pellet was collected by centrifugation at 18,000×g for 20 min at 4° C. The final pellet was re-suspended in 10 volumes of buffer and stored at −20° C.
(§2) On the day of the assay, the frozen membranes were thawed and spun at 48,000×g for 20 min. The supernatant was decanted and discarded. The pellet was resuspended in Dulbecco's phosphate buffered saline (PBS, Life Technologies) pH 7.4 and homogenized with the Polytron for 6 seconds. Protein concentrations were determined using a Pierce BCA Protein Assay Kit, with bovine serum albumin as the standard (Pierce Chemical Company, Rockford, Ill.).
(§3) Incubation was terminated by rapid filtration on a multi-manifold tissue harvester (Brandel, Gaithersburg, Md.) using GF/B filters presoaked in 0.33% polyethyleneimine (w/v) to reduce non-specific binding. Tissue was rinsed 3 times in PBS, pH 7.4. Scintillation fluid was added to filters containing the washed tissue and allowed to equilibrate. Filters were then counted to determine radioactivity bound to the membranes by liquid scintillation counting (2200CA Tri-Carb LSC, Packard Instruments, 50% efficiency or Wallac Trilux 1450 MicroBeta, 40% efficiency, Perkin Elmer).
(§4) Data were expressed as disintegrations per minute (DPMs). Within each assay, each point had 2-3 replicates. The replicates for each point were averaged and plotted against the log of the drug concentration. IC50, which is the concentration of the compound that produces 50% inhibition of binding, was determined by least squares non-linear regression. Ki values were calculated using the Cheng-Prussof equation (1973): […]

human α4β2 nAChR subtype = biological target: T2, human α4β2 nAChR subtype (Homo sapiens, UniProt P17787+P43681); test: Radioligand binding ([3H]nicotine) at human α4β2 nAChR, SH-EP1/human α4β2 clonal cell membranes; conditions: read-out: Human α4β2 Ki
T2 construct: expressed in transfected cells; host or cells: SH-EP1 clonal cells expressing human α4β2
Procedure: Preparation of membranes from SH-EP1/human α4β2 clonal cells: Cell pellets from 40 150 mm culture dishes were pooled, and homogenized by Polytron (Kinematica GmbH, Switzerland) in 20 milliliters of ice-cold preparative buffer. The homogenate was centrifuged at 48,000 g for 20 minutes at 4° C. The resulting pellet was re-suspended in 20 mL of ice-cold preparative buffer and stored at −20° C.
as §2, §3, §4

rat α7 nAChR subtype = biological target: T3, rat α7 nAChR subtype (Rattus norvegicus, UniProt Q05941); test: Radioligand binding ([3H]MLA) at α7 nAChR, rat hippocampus membranes
T3 construct: Preparation of membranes from rat hippocampus; from tissue; host or cells: rat hippocampus membranes
Procedure: as §1, with “from rat hippocampus: Rats (female,” for “from rat cortex: Rats (female,”, “70% CO2, then decapitated.” for “70% CO2, and then decapitated.”, “platform. The hippocampus was removed” for “platform. The cerebral cortex was removed”, “placed in 10 volumes (weight:volume)” for “placed in 20 volumes (weight:volume)”, “and the tissue suspension was” for “and the suspension was”, “re-suspended in 10 volumes of” for “re-suspended in 20 volumes of”
On the day of the assay, tissue was thawed, centrifuged at 18,000×g for 20 min, and then re-suspended in ice-cold PBS (Dulbecco's Phosphate Buffered Saline, 138 mM NaCl, 2.67 mM KCl, 1.47 mM KH2PO4, 8.1 mM Na2HPO4, 0.9 mM CaCl2, 0.5 mM MgCl2, Invitrogen/Gibco, pH 7.4) to a final concentration of approximately 2 mg protein/mL. Protein was determined by the method of Lowry et al., J. Biol. Chem. 193: 265 (1951), herein incorporated by reference, using bovine serum albumin as the standard.
Assay: The binding of [^3H]MLA was measured using a modification of the methods of Davies et al., Neuropharmacol. 38: 679 (1999), herein incorporated by reference. [^3H]MLA (Specific Activity=25-35 Ci/mmol) was obtained from Tocris. The binding of [^3H]MLA was determined using a 2 h incubation at 21° C. Incubations were conducted in 48-well micro-titre plates and contained about 200 μg of protein per well in a final incubation volume of 300 μL. The incubation buffer was PBS and the final concentration of [^3H]MLA was 5 nM. The binding reaction was terminated by filtration of the protein containing bound ligand onto glass fiber filters (GF/B, Brandel) using a Brandel Tissue Harvester at room temperature. Filters were soaked in de-ionized water containing 0.33% polyethyleneimine to reduce non-specific binding. Each filter was washed with PBS (3×1 mL) at room temperature. Non-specific binding was determined by inclusion of 50 μM non-radioactive MLA in selected wells.
The inhibition of [^3H]MLA binding by test compounds was determined by including seven different concentrations of the test compound in selected wells. Each concentration was replicated in triplicate. IC50 values were estimated as the concentration of compound that inhibited 50 percent of specific [^3H]MLA binding. Inhibition constants (Ki values), reported in nM, were calculated from the IC50 values using the method of Cheng et al., Biochem. Pharmacol. 22: 3099-3108 (1973), herein incorporated by reference.

[1] = rat cortex membranes, 5 nM [3H]nicotine
[2] = rat hippocampus membranes, 5 nM [3H]MLA, read-out: Rat α7 Ki

T2 sequence (P43681 29-627 limits assumed): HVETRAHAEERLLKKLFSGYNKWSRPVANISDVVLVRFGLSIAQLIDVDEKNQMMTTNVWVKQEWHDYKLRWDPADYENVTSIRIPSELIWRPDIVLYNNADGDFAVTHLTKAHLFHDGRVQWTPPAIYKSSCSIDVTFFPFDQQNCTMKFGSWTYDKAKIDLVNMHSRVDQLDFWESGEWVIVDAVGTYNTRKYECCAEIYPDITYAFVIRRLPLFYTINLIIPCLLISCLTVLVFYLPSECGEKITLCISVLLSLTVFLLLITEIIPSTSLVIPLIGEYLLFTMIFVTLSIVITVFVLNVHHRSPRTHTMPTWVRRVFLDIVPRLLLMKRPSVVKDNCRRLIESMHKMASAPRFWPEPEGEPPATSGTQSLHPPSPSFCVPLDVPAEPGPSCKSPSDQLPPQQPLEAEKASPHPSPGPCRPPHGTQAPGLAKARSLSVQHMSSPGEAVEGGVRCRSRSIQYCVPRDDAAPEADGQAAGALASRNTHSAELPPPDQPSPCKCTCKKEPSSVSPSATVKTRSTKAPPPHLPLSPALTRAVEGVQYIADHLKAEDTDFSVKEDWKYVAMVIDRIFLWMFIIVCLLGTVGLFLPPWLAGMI
T2 sequence (P17787 26-502): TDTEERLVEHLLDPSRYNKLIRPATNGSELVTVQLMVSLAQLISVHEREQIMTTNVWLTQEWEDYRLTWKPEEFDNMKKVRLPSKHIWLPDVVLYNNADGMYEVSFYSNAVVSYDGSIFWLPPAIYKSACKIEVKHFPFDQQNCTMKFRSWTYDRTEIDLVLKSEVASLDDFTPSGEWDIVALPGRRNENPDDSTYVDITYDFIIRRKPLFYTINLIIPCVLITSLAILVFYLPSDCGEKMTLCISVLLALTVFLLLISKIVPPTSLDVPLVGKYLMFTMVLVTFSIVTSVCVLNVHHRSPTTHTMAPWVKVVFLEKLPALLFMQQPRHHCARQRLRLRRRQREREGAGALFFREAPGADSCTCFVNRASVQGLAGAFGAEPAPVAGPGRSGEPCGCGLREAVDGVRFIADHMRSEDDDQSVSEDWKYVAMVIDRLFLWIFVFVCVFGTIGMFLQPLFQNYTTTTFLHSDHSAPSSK
T3 sequence (Q05941 23-502): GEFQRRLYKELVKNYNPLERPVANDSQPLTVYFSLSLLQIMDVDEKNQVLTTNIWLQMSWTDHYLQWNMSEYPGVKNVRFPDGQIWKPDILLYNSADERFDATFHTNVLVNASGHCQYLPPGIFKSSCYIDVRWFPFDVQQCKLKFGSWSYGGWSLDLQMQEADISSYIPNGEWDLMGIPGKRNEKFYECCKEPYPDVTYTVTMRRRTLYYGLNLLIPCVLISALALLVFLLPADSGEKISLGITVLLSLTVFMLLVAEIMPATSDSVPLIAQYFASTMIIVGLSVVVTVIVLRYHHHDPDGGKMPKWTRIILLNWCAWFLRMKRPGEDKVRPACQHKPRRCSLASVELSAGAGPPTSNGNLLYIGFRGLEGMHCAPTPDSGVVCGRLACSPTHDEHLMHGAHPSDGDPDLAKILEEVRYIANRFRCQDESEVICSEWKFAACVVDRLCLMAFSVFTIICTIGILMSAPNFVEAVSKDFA
T1 sequence (P09483 31-630): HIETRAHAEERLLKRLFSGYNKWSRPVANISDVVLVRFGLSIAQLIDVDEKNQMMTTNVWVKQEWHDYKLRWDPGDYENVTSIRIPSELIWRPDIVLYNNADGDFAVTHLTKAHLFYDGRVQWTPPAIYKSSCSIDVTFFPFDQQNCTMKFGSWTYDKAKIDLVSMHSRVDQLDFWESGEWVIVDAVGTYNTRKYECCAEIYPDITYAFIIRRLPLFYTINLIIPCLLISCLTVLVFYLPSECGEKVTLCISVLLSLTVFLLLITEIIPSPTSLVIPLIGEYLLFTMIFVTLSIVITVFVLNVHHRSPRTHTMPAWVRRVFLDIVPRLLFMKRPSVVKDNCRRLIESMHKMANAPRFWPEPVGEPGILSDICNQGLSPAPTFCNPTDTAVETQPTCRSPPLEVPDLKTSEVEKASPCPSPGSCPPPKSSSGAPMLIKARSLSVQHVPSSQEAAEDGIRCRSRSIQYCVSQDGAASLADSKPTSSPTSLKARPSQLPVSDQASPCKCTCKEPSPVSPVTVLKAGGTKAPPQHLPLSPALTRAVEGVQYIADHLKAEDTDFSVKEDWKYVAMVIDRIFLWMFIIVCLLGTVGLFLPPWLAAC
T1 sequence (P12390 25-500): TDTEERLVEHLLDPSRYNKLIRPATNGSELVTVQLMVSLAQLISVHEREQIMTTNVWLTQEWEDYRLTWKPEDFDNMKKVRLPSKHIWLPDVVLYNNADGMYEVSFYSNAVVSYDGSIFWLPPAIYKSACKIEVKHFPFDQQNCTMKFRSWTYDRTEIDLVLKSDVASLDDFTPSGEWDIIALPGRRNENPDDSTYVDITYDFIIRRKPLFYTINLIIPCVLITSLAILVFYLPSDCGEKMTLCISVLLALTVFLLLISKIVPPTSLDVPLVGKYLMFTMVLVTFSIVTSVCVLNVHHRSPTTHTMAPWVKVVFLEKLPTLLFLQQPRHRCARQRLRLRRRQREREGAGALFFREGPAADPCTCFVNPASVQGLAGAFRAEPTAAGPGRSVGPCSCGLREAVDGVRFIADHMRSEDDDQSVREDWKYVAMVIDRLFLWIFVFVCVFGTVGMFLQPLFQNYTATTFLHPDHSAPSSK

O=C(C1CC=CC1)N1CC2CNCC1C2 (stereo not drawn)
Ki (rat α4β2 nAChR subtype; [1]): 120 nM
Ki (human α4β2 nAChR subtype): 21 nM
Ki (rat α7 nAChR subtype; [2]): 160 nM

CC(C)C(=O)N1C[C@@H]2CN[C@@H](C2)C1
Ki (rat α4β2 nAChR subtype): 380 nM
Ki (human α4β2 nAChR subtype): 380 nM
Ki (rat α7 nAChR subtype): 220 nM

CCC(=O)N1C[C@@H]2CN[C@@H](C2)C1
Ki (rat α4β2 nAChR subtype): 30 nM
Ki (human α4β2 nAChR subtype): 24 nM
Ki (rat α7 nAChR subtype): 2000 nM

O=C(N1CC2CNC(C2)C1)C(F)(F)F (stereo not drawn)
Ki (rat α4β2 nAChR subtype): 2400 nM
Ki (human α4β2 nAChR subtype): 2100 nM
Ki (rat α7 nAChR subtype): > 10000 nM

O=C(CCF)N1C[C@@H]2CN[C@@H](C2)C1
Ki (rat α4β2 nAChR subtype): 31 nM
Ki (human α4β2 nAChR subtype): 27 nM
Ki (rat α7 nAChR subtype; [2]): 950 nM

CCCC(=O)N1C[C@@H]2CN[C@@H](C2)C1
Ki (rat α4β2 nAChR subtype): 18 nM
Ki (human α4β2 nAChR subtype): 18 nM
Ki (rat α7 nAChR subtype): 160 nM

O=C(C1CC1)N1CC2CNC(C2)C1 (stereo not drawn)
Ki (rat α4β2 nAChR subtype): 1.3 nM
Ki (human α4β2 nAChR subtype): 1.5 nM
Ki (rat α7 nAChR subtype; [2]): 290 nM

CC1CC1C(=O)N1C[C@@H]2CN[C@@H](C2)C1 (stereo partly drawn)
Ki (rat α4β2 nAChR subtype): 4.8 nM
Ki (human α4β2 nAChR subtype): 6.8 nM
Ki (rat α7 nAChR subtype): 460 nM

O=C([C@H]1C[C@H]1F)N1C[C@H]2CNC[C@@H]1C2
Ki (rat α4β2 nAChR subtype): 170 nM
Ki (human α4β2 nAChR subtype): 68 nM
Ki (rat α7 nAChR subtype): 1300 nM

O=C(C1CC=CC1)N1C[C@H]2CN[C@H](C2)C1
Ki (rat α4β2 nAChR subtype): 5.5 nM
Ki (human α4β2 nAChR subtype): 4.4 nM
Ki (rat α7 nAChR subtype): 65 nM

CCOC(=O)N1C[C@H]2CN[C@H](C2)C1
Ki (rat α4β2 nAChR subtype): 11 nM
Ki (human α4β2 nAChR subtype): 15 nM
Ki (rat α7 nAChR subtype): 4200 nM

O=C(C1CCC1)N1C[C@@H]2CN[C@@H](C2)C1
Ki (rat α4β2 nAChR subtype): 14 nM
Ki (human α4β2 nAChR subtype): 13 nM
Ki (rat α7 nAChR subtype): 370 nM

O=C(C1CC=CC1)N1C[C@@H]2CN[C@@H](C2)C1
Ki (rat α4β2 nAChR subtype; [1]): 330 nM
Ki (human α4β2 nAChR subtype; SH-EP1/human α4β2 cell membranes, 5 nM [3H]nicotine): 420 nM
Ki (rat α7 nAChR subtype): 29 nM

O=C(C1CCCC1)N1C[C@@H]2CN[C@@H](C2)C1
Ki (rat α4β2 nAChR subtype): 130 nM
Ki (human α4β2 nAChR subtype): 160 nM
Ki (rat α7 nAChR subtype; [2]): 130 nM

O=C(C1C[C@H]1F)N1CC2CNC(C2)C1 (stereo partly drawn)
Ki (rat α4β2 nAChR subtype): 21 nM
Ki (human α4β2 nAChR subtype): 11 nM
Ki (rat α7 nAChR subtype): 630 nM

CCOC(=O)N1C[C@@H]2CNC[C@H]1C2
Ki (rat α4β2 nAChR subtype): 32 nM
Ki (human α4β2 nAChR subtype): 78 nM
Ki (rat α7 nAChR subtype): > 10000 nM

O=C(C1CC1)N1C[C@H]2CN[C@H](C2)C1
Ki (rat α4β2 nAChR subtype): 0.5 nM
Ki (human α4β2 nAChR subtype): 0.8 nM
Ki (rat α7 nAChR subtype; [2]): 190 nM
